Results on 20 compounds are retold here after US9783859B2, “Method of screening and quantifying various enzymatic activities using artificial genetic circuits” (KOREA RESEARCH INSTITUTE OF BIOSCIENCE AND BIOTECHNOLOGY, priority 2009, dated 2017).

Each structure is given as a SMILES string. Where only a bound is given, the exact number is not on record here.

The test system of test [1] is artificial genetic circuit pGESS-EGFP (I) (dmpR). Type of test: cell-based, E. coli DH5α. The note with it: 0.1-1000 μM tested, overnight at 30° C., LB medium. How it is done:
The signals of the artificial genetic circuit for phenolic compounds were quantitatively analyzed. Specifically, a single colony of E. coli DH5α containing pGESS-EGFP (I) was inoculated into LB liquid medium containing 50 μg/ml of ampicillin and was cultured with shaking overnight at 37° C. The culture was inoculated into LB medium containing 50 μg/ml of ampicillin to a concentration of 1% (v/v), and 0.1-1000 μM of each of phenol, o-chlorophenol, m-chlorophenol, o-nitrophenol, catechol and resorcinol was added thereto and cultured with shaking overnight at 30° C. The cells were lysed, and the supernatant was analyzed by a fluorescence spectrometer (Varian, Australia), thereby measuring the fluorescence of GFP at 510 nm.

Test [2] shares this test system. As to the kind of experiment: signals of artificial genetic circuit for various phenols, FACS fluorescence. Type of test: cell-based, E. coli DH5α. The settings on record: 100 uM of each phenol derivative, 30° C. 18 hours. The source says: Whether the artificial genetic circuit senses the following phenol derivatives and the sensitivities of the genetic circuit to the phenol derivatives were examined: o-nitrophenol, m-nitrophenol, p-nitrophenol, o-chlorophenol, m-chlorophenol, p-chlorophenol, salicylic acid, 2-aminophenol, 2-methoxyphenol, o-cresol, m-cresol, p-cresol, catechol, resorcinol, 2-fluorophenol, 2-iodophenol, 2,4-dimethylphenol, 2,5-dimethylphenol, 3,4-dimethylphenol, 2,3-dimethylphenol, 3,5-dimethylphenol, 2,4-dichlorophenol, 2,5-dichlorophenol, 2,3-dichlorophenol, 2,6-dichlorophenol, 3,4-dichlorophenol, 3,5-dichlorophenol, 2,4-dinitrophenol, 3-methylcatechol, 2-ethylphenol, 3-ethylphenol, and benzene. Specifically, a single colony of E. coli DH5α containing pGESS-EGFP (I) was inoculated into LB liquid medium containing 50 μg/ml of ampicillin and was cultured overnight at 37° C. The culture was inoculated into LB medium containing 50 μg/ml of ampicillin to a concentration of 1% (v/v) and was cultured at 37° C. for about 8 hours until the OD600 of the cells reached 3. Then, 100 uM of each of the phenol derivatives was added to the culture which was then cultured with shaking at 30° C. for 18 hours. 100 μl of each culture was extracted, and the distribution of fluorescence in individual cells was examined by FACS. Each of the samples was tested three times, and the measurements were averaged.

The subject of test [3] is artificial genetic circuit pGESS-Cm (II). As to the kind of experiment: response of chloramphenicol resistance reporter circuit to phenol derivatives, OD600. Type of test: cell-based, E. coli EPI300. The note with it: 100 μM of each phenol derivative, 30 μg/ml chloramphenicol, 37° C. 8 hours. How it is done: In the case of the artificial genetic circuit comprising chloramphenicol resistance gene as the reporter, whether the genetic circuit responds to the substrates was examined. […] The culture was inoculated into 50 μg/ml ampicillin-containing LB liquid medium to a concentration of 1% (v/v), and then 30 μg/ml of chloramphenicol and 100 μM of each of the phenol derivatives were added thereto and the cells were cultured with shaking at 37° C. for 8 hours. Then, the OD600 of the cells was measured, thereby examining whether the genetic circuit responded to the phenol derivatives. As a control group, cells containing 100 μM of phenol without containing chloramphenicol were used.

For `Oc1cccc(Cl)c1` [m-chlorophenol], in test [1], the “concentration from which fluorescence started to be sensed” value (“concentration” for short) was found to be 1 µM. In test [2], the “response of the artificial genetic circuit (fluorescence, FACS)” value (“response … (fluorescence, FACS)” below) is “weakly responded”. Also, in test [3], the “response of the artificial genetic circuit (chloramphenicol resistance, OD600)” value (“response … (chloramphenicol resistance, OD600)” for short) is “strongly responded”.
On to `Cc1ccc(O)cc1` [p-cresol], for which the “response … (fluorescence, FACS)” value in test [2] is “weakly responded”. Moreover, the “response … (chloramphenicol resistance, OD600)” value in test [3] is on record as “weakly responded to or did not respond”.
Taken in the same sequence, the figures for `Cc1ccccc1O` [o-cresol] were “strongly responded” and “strongly responded”.
As for `Oc1cc(Cl)ccc1Cl` [2,5-dichlorophenol], in test [2], the “response … (fluorescence, FACS)” value is recorded as “weakly responded”.
For the compound `O=[N+]([O-])c1cccc(O)c1` [m-nitrophenol], in test [2], the “response … (fluorescence, FACS)” value is reported as “weakly responded”. In test [3], the “response … (chloramphenicol resistance, OD600)” value was “strongly responded”.
Take `Oc1ccccc1O` [catechol]: the “concentration” value in test [1] was 10 µM. In addition, the “response … (fluorescence, FACS)” value in test [2] is “strongly responded”. Further, in test [3], the “response … (chloramphenicol resistance, OD600)” value is “strongly responded”.
Turning to `Oc1ccccc1F` [2-fluorophenol], in test [2], the “response … (fluorescence, FACS)” value is given as “strongly responded”. In addition, the “response … (chloramphenicol resistance, OD600)” value in test [3] is recorded as “strongly responded”.
On to `Oc1cccc(O)c1` [resorcinol], for which the “concentration” value in test [1] stood at 100 µM.
In the case of `Oc1cccc(Cl)c1Cl` [2,3-dichlorophenol], the “response … (fluorescence, FACS)” value in test [2] was “weakly responded”.
Regarding `Cc1cccc(O)c1C` [2,3-dimethylphenol], in test [2], the “response … (fluorescence, FACS)” value is on record as “weakly responded”. For the same compound, the “response … (chloramphenicol resistance, OD600)” value in test [3] is “strongly responded”.
Taken in the same sequence, the figures for `Oc1ccc(Cl)cc1` [p-chlorophenol] were “weakly responded” and “weakly responded to or did not respond”.
Take `O=[N+]([O-])c1ccc(O)cc1` [p-nitrophenol]: the “response … (fluorescence, FACS)” value in test [2] is recorded as “did not respond”. In addition, the “response … (chloramphenicol resistance, OD600)” value in test [3] is recorded as “weakly responded to or did not respond”.
Consider `Nc1ccccc1O` [2-aminophenol], for which the “response … (fluorescence, FACS)” value in test [2] is “strongly responded”.
On to `Oc1ccccc1I` [2-iodophenol], for which, in test [2], the “response … (fluorescence, FACS)” value was “strongly responded”. Besides, the “response … (chloramphenicol resistance, OD600)” value in test [3] is recorded as “strongly responded”.
Take `Oc1ccccc1Cl` [o-chlorophenol]: the “concentration” value in test [1] was no more than 0.1 µM. Moreover, in test [2], the “response … (fluorescence, FACS)” value is given as “strongly responded”. Also, the “response … (chloramphenicol resistance, OD600)” value in test [3] is reported as “strongly responded”.
`COc1ccccc1O` [2-methoxyphenol]: the “response … (fluorescence, FACS)” value in test [2] is “strongly responded”. The “response … (chloramphenicol resistance, OD600)” value in test [3] is “strongly responded”.
With `Cc1ccc(C)c(O)c1` [2,5-dimethylphenol], in test [2], the “response … (fluorescence, FACS)” value was “weakly responded”.
Regarding `CCc1ccccc1O` [2-ethylphenol], the “response … (fluorescence, FACS)” value in test [2] is listed as “strongly responded”. Besides, in test [3], the “response … (chloramphenicol resistance, OD600)” value was “strongly responded”.
On to `Cc1cccc(O)c1` [m-cresol], for which the “response … (fluorescence, FACS)” value in test [2] is recorded as “strongly responded”. In test [3], the “response … (chloramphenicol resistance, OD600)” value was “strongly responded”.
`O=[N+]([O-])c1ccccc1O` [o-nitrophenol]: in test [1], the “concentration” value was 10 µM. In addition, the “response … (fluorescence, FACS)” value in test [2] is “strongly responded”. For the same compound, the “response … (chloramphenicol resistance, OD600)” value in test [3] was “strongly responded”.
